Assay results as given in ChEMBL document CHEMBL1806354 (J Med Chem, 2011).

Columns and labels:
[1] = target: T1, 5-hydroxytryptamine receptor 1A (Rattus norvegicus) (UniProt P19327); test: Decrease of 5HT1A receptor-mediated excitatory postsynaptic current amplitude in Sprague-Dawley rat median prefrontal cortex at 10 uM by whole-cell voltage clamp assay in presence of 10 uM of 5HT1A receptor antagonist WAY-100635; type: functional, tissue-based; parameters: scale not given: the % may be the effect or the level left
T1 sequence (whole entry): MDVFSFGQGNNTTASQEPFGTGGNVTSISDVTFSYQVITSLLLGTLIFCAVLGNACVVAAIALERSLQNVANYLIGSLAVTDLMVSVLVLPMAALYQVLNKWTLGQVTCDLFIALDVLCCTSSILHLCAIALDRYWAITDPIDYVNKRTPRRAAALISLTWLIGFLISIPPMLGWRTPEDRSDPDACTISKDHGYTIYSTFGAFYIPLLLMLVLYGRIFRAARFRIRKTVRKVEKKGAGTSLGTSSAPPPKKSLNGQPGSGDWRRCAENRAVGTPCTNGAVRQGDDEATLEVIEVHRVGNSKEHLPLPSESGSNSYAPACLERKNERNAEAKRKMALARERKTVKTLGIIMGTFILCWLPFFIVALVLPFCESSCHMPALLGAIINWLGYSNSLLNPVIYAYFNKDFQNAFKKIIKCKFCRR

[2] = target: T2, Alpha-1D adrenergic receptor (Homo sapiens, UniProt P25100); test: Antagonist activity at adrenergic Alpha-1D receptor expressed in HEK293 cells co-transfected with Galpha16 assessed as inhibition of adrenaline-induced intracellular calcium after 3 to 5 mins by Fluo-4/AM assay; type: functional, cell-based
T2 sequence (P25100 whole entry): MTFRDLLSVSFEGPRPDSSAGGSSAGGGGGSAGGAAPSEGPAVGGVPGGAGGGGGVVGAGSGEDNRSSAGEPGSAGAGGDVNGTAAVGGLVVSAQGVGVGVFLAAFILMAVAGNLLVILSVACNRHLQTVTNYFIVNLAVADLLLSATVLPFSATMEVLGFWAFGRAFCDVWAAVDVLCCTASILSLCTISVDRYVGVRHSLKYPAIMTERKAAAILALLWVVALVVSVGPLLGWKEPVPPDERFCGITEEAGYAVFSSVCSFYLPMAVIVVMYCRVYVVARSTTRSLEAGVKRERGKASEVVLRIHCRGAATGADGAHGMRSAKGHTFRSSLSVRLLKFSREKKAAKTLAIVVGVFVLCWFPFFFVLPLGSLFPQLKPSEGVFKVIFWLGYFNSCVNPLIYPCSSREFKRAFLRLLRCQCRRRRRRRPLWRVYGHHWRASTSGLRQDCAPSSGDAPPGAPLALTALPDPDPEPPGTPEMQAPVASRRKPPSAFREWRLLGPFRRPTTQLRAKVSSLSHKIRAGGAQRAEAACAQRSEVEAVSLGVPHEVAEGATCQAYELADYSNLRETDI

[3] = target: T3, Alpha-1B adrenergic receptor (Homo sapiens, UniProt P35368); test: Antagonist activity at adrenergic Alpha-1B receptor expressed in CHO cells assessed as inhibition of adrenaline-induced intracellular calcium after 3 to 5 mins by Fluo-4/AM assay; type: functional, cell-based
T3 sequence (P35368 whole entry): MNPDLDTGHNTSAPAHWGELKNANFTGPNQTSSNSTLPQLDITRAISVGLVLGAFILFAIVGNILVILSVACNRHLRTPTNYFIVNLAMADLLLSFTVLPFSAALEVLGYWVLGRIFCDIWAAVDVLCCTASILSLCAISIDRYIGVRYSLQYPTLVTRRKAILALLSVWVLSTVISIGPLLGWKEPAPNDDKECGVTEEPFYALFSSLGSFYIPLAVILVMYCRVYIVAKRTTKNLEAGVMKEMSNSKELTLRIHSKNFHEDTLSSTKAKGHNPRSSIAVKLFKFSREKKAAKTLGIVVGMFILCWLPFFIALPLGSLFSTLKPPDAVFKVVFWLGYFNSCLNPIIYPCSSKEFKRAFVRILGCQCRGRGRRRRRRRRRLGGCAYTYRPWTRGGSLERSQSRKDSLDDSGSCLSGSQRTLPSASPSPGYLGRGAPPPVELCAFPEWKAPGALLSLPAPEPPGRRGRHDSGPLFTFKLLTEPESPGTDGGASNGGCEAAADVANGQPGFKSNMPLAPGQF

[4] = target: D(2) dopamine receptor (Homo sapiens, UniProt P14416); test: Displacement of [3H]spiperone from dopamine D2 receptor expressed in HEK293 cells after 50 mins by beta liquid scintillation counter; type: cell-based
Chain of D(2) dopamine receptor (P14416 whole entry): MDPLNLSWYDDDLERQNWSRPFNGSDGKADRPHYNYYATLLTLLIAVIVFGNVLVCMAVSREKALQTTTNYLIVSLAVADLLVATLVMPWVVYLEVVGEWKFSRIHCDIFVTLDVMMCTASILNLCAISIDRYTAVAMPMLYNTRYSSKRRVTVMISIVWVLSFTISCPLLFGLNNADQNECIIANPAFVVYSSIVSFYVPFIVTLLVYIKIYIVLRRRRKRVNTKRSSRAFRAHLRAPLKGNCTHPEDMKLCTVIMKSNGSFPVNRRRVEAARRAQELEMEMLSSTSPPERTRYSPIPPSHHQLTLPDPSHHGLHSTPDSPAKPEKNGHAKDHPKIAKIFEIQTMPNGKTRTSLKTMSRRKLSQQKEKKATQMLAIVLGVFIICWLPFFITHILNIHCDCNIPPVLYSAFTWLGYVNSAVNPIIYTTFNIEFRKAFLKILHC

[5] = target: T1, 5-hydroxytryptamine receptor 1A (Rattus norvegicus); test: Effect on 5HT1A receptor-mediated pair pulse ratio in Sprague-Dawley rat median prefrontal cortex at 10 uM by whole-cell voltage clamp assay; type: tissue-based

Activity [1]: 99.4%
IC50 [2]: > 10 µM
IC50 [3]: > 10 µM
Ki [4]: 0.174 µM
Activity [5]: 114%
Compound: CCCN1CCc2cccc3c2[C@H]1Cc1cccc(OC(=O)CCCCC2CCSS2)c1-3 (stereo not given in full)
